Where only a bound is given, the exact number is not on record here.

In this test the target is T1, Human cRaf1 (Homo sapiens, UniProt P04049).
T1 construct: poly-histidine (C); made in house
T1 sequence (P04049 whole entry): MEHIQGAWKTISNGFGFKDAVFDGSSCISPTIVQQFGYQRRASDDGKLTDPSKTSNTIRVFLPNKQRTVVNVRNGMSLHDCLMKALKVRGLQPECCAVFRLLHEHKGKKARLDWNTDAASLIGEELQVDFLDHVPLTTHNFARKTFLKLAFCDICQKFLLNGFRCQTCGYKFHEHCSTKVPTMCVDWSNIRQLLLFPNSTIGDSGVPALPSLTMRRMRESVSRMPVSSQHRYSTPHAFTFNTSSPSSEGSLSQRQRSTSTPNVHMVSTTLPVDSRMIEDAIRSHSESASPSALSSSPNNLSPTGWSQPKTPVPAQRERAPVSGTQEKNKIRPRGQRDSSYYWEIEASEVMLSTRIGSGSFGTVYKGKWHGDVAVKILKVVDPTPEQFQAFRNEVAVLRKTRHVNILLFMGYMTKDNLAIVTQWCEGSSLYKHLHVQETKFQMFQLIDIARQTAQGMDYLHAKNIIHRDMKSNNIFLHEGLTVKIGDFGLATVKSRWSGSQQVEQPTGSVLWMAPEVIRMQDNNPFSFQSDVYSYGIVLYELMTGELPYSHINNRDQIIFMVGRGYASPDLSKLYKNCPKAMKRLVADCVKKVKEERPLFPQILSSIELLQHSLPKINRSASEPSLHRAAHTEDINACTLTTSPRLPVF
The experiment in a line: Raf kinase assay (cRaf1 assay / Raf/MEK cascade assay). The class given is biochemical. The settings on record: Table 3; read-out: Raf Kinase activity. As to the method: The potency of cRaf1 dependent kinase activity was measured using one of two assay formats. The first measured cRaf1 catalyzed phosphorylation of MEK1, the natural substrate for cRaf1. This assay is referred to as the cRaf1 assay. The second measured the ability of cRaf1 to phosphorylate and activate MEK1. This assay is referred to as the Raf/MEK cascade assay.
Human cRaf1 tagged with poly histidine at the carboxyterminus was expressed in a baculovirus expression system and purfied by Ni chelate affinity chromatography. Human MEK1 was expressed in E. coli as a fusion protein with Glutathione-S-transferase, and purified by glutathione sepharose affinity chromatography. […] Reactions contained cRaf1 (20 nM), MEK1 (100-500 nM), [γ-^32 P]ATP ([…]), Mg^2+ (10 mM), MOPS (50 mM, pH 7.5). Reactions were incubated at room temperature for periods of time ranging from 20-120 minutes. Inhibitors were diluted in 100% DMSO prior to addition to the assay. Reactions were terminated with an equal volume of 0.5% phosphoric acid. MEK1 phosphorylation was detected by scintillation counting following collection of protein onto phosphocellulose filters.
Human cRaf1 and MEK1 were purified as described above. A peptide substrate phosphorylated by MEK1 was used as the final phosphoryl group acceptor. […] Assay conditions were the same as those described above except for the following modifications. Reactions contained cRaf1 (1-5 nM), MEK1 (60 nM), and peptide ([…]).
Turning to `O=C1Nc2ccc(C(=O)CN(CCO)CCO)cc2C1=Cc1cc(Br)c(O)c(Br)c1` [Example 74, 5-{2-[Bis-(2-hydroxy-ethyl)-amino]-acetyl}-3-(3,5-dibromo-4-hydroxy-benzylidene)-1,3-dihydro-indol-2-one], the IC50 was under 1000 nM.
Turning to `CN(CCO)CC(=O)c1ccc2c(c1)C(=Cc1cc(Br)c(O)c(Br)c1)C(=O)N2` [Example 75], the IC50 is under 1000 nM.
Then `O=C1Nc2ccc(C(=O)CN3CCSC3)cc2C1=Cc1cc(Br)c(O)c(Br)c1` [Example 76, 3-(3,5-Dibromo-4-hydroxy-benzylidene)-5-(2-(thiazolidin-3-yl)-acetyl)-1,3-dihydro-indol-2-one], with under 1000 nM; and `O=C1Nc2ccc(C(=O)C[n+]3ccccc3)cc2C1=Cc1cc(Br)c(O)c(Br)c1` [Example 77, 3-(3,5-Dibromo-4-hydroxy-benzylidene)-5-(2-(N-pyridinium)-acetyl)-1,3-dihydro-indol-2-one chloride], with under 1000 nM; and `CC(C)(C)C(=O)OCOc1c(Br)cc(C=C2C(=O)Nc3ccc(I)cc32)cc1Br` [Example 80, 2,2-Dimethyl-propionic acid,2,6-dibromo-4-(5-iodo-2-oxo-1,3-dihydro-indol-3-ylidenemethyl)-phenoxymethyl ester], with 10000 to 100000 nM.
On to `O=C1Nc2ccc(Br)cc2C1=Cc1cc(Br)c(O)c(Br)c1` [Example 81, 5-Bromo-3-(3,5-dibromo-4-hydroxy-benzylidene)-1,3-dihydro-indol-2-one], for which the IC50 is under 1000 nM.
Then `COc1cc(C=C2C(=O)Nc3ccc(Br)cc32)cc(Cl)c1O` [Example 82, 5-Bromo-3-(3-chloro-4-hydroxy-5-methoxy-benzylidene)-1,3-dihydro-indol-2-one], with under 1000 nM.
On to `CCN(CC)CC(=O)c1ccc2c(c1)C(=Cc1cc(Br)c(O)c(Br)c1)C(=O)N2` [Example 83, 3-(3,5-Dibromo-4-hydroxy-benzylidene)-5-(2-diethylamino-acetyl)-1,3-dihydro-indol-2-one], for which the IC50 is under 1000 nM.
As to `O=C1Nc2c(I)cc(C(=O)CCl)cc2C1=Cc1cc(Br)c(O)c(Br)c1` [Example 86, 5-(2-Chloro-acetyl)-3-(3,5-dibromo-4-hydroxy-benzylidene)-7-iodo-1,3-dihydro-indol-2-one], the IC50 was under 1000 nM.
Then `O=C1Nc2ccc(I)cc2C1=Cc1cc(Br)c(OC(=O)N(CCO)CCO)c(Br)c1` [Example 87, N-[bis-(2-hydroxy-ethyl)]carbamic acid, 2,6-dibromo-4-(5-iodo-2-oxo-1,3-dihydro-indol-3-ylidenemethyl) phenyl ester], with 10000 to 100000 nM; and `O=C1Nc2ccc(C(=O)CCl)cc2C1=Cc1cc(Cl)c(O)c(Cl)c1` [Example 88, 5-(2-Chloro-acetyl)-3-(3,5-dichloro-4-hydroxy-benzylidene)-1,3-dihydro-indol-2-one], with under 1000 nM; and `CC(=O)c1ccc2c(c1)C(=Cc1cc(Br)c(O)c(Br)c1)C(=O)N2` [Example 89, 5-Acetyl-3-(3,5-dibromo-4-hydroxy-benzylidene)-1,3-dihydro-indol-2-one], with under 1000 nM.
In the case of `CC(=O)c1ccc2c(c1)C(=Cc1cc(Cl)c(O)c(Cl)c1)C(=O)N2` [Example 90, 5-Acetyl-3-(3,5-dichloro-4-hydroxy-benzylidene)-1,3-dihydro-indol-2-one], the IC50 is under 1000 nM.
Consider `COc1cccc(C(=O)c2ccc3c(c2)C(=Cc2cc(Br)c(O)c(Br)c2)C(=O)N3)c1` [Example 91, 3-(3,5-Dibromo-4-hydroxy-benzylidene)-5-(3-methoxy-benzoyl)-1,3-dihydro-indol-2-one], for which the IC50 was under 1000 nM.
Regarding `O=C1Nc2ccc(-c3ccccc3)cc2C1=Cc1cc(Br)c(O)c(Br)c1` [Example 92, 3-(3,5-Dibromo-4-hydroxy-benzylidene)-5-phenyl-1,3-dihydro-indol-2-one], the IC50 was under 1000 nM.
With `O=C1Nc2ccc(-c3ccccc3)cc2C1=Cc1cc(Cl)c(O)c(Cl)c1` [Example 93, 3-(3,5-Dichloro-4-hydroxy-benzylidene)-5-phenyl-1,3-dihydro-indol-2-one], the IC50 was under 1000 nM.
Consider `CCNc1nc(-c2ccc3c(c2)C(=Cc2cc(Br)c(O)c(Br)c2)C(=O)N3)cs1` [Example 94, 3-(3,5-Dibromo-4-hydroxy-benzylidene)-5-(2-(ethylamino)-4H-thiazol-4-yl)-1,3-dihydro-indol-2-one], for which the IC50 was under 1000 nM.
Turning to `O=C1Nc2ccc(C(=O)c3ccc([N+](=O)[O-])cc3)cc2C1=Cc1cc(Br)c(O)c(Br)c1` [Example 95, 3-(3,5-Dibromo-4-hydroxy-benzylidene)-5-(4-nitro-benzoyl)-1,3-dihydro-indol-2-one], the IC50 was under 1000 nM.
In the case of `O=C1Nc2ccc(C(=O)c3cccc([N+](=O)[O-])c3)cc2C1=Cc1cc(Br)c(O)c(Br)c1` [Example 96, 3-(3,5-Dibromo-4-hydroxy-benzylidene)-5-(3-nitro-benzoyl)-1,3-dihydro-indol-2-one], the IC50 is under 1000 nM.
The value for `O=C1Nc2ccc(C(=NO)c3ccccc3)cc2C1=Cc1cc(Br)c(O)c(Br)c1` [Example 97, 3-(3,5-Dibromo-4-hydroxy-benzylidene)-5-((hydroxyimino)-phenyl-methyl)-1,3-dihydro-indol-2-one] was under 1000 nM; that for `CCC(=O)c1ccc2c(c1)C(=Cc1cc(Cl)c(O)c(Cl)c1)C(=O)N2` [Example 98, 3-(3,5-Dichloro-4-hydroxy-benzylidene)-5-propionyl-1,3-dihydro-indol-2-one] was under 1000 nM; that for `NS(=O)(=O)c1ccc2c(c1)C(=Cc1cc(Cl)c(O)c(Cl)c1)C(=O)N2` [Example 99, 3-(3,5-Dichloro-4-hydroxy-benzylidene)-2-oxo-2,3-dihydro-1H-indole-5-sulfonic acid amide] was under 1000 nM.
In the case of `O=C1Nc2ccc(S(=O)(=O)N3CCCC3)cc2C1=Cc1cc(Cl)c(O)c(Cl)c1` [Example 100, 3-(3,5-Dichloro-4-hydroxy-benzylidene)-5-(pyrrolidine-1-sulfonyl)-1,3-dihydro-indol-2-one], the IC50 is under 1000 nM.
On to `COc1cc(C=C2C(=O)Nc3ccccc32)cc([N+](=O)[O-])c1O` [Example 101, 3-(4-Hydroxy-3-methoxy-5-nitro-benzylidene)-1,3-dihydro-indol-2-one], for which the IC50 fell in the range of 1000 to 10000 nM.
Take `COc1cc(C=C2C(=O)Nc3ccccc32)cc(I)c1O` [Example 102, 3-(4-Hydroxy-3-iodo-5-methoxy-benzylidene)-1,3-dihydro-indol-2-one]: the IC50 was in the range of 1000 to 10000 nM.
Take `CC(=O)Oc1c(Br)cc(C=C2C(=O)Nc3ccc(Cl)cc32)cc1Br` [Example 103, 2,6-Dibromo-4-[(5-chloro-2-oxo-1,2-dihydro-3H-indol-3-ylidene)methyl]phenyl acetate]: the IC50 is 10000 to 100000 nM.
As for `COc1cc(C=C2C(=O)Nc3ccc(I)cc32)cc([N+](=O)[O-])c1O` [Example 104, 3-(4-Hydroxy-3-methoxy-5-nitro-benzylidene)-5-iodo-1,3-dihydro-indol-2-one], the IC50 is under 1000 nM.
The value for `O=C1Nc2ccc([N+](=O)[O-])cc2C1=Cc1cc(O)c(O)c(Cl)c1` [Example 105, 3-(3-Chloro-4,5-dihydroxy-benzylidene)-5-nitro-1,3-dihydro-indol-2-one] was under 1000 nM.

The values above are taken from patent publication US6268391A, “Benzylidene-1,3-dihydro-indol-2-one derivatives a receptor tyrosine kinase inhibitors, particularly of Raf kinases” (Glaxo Wellcome Inc., priority 1997, dated 2001).
